Data from patent US20070213291A1, “Therapeutically useful synthetic oligonucleotides” (priority 1999, published 2007).
“And” between values parts separate entries of the source, which are not always exact repeats. Identical values can stand only once.

Legend:
[1] = tested on: HL-60 human promyelocytic leukemia cells; assay: Inhibition of HL-60 cell proliferation (MTT); assay type: cell-based; conditions: 100 μg/ml, 48 h
Experimental: (§1) Cells were seeded in 6 (1 ml/well), 24 (0.5 ml/well) or 96 (0.1 ml/well) well flat-bottom microplates and were maintained at 37° C. in a 5% CO2 atmosphere. Unless stated otherwise, 2.5×10^5 cells/ml were incubated with 0 μg/ml (control) and 100 μg/ml (treated) of 2 to 45 base sequences containing A, C, G and T for 48 h.
(§2) Cell proliferation was measured using dimethylthiazol-diphenyl-tetrazolium (MTT) reduction (Mosman et al. J. Immunol. Methods 65:55, 1983). MTT was measured at a wavelength of 570 nm using a multiplate spectrophotometer reader (ELX800, Bio-TEK Instruments Inc., Winooski, Vt.).
HL-60 promyelocytic leukemia cells are a p53 mutated human suspension tumor model. HL-60 cells were incubated with 6 base GT sequences (Table 6).

[2] = tested on: PC-3 human prostate cancer cells; assay: Inhibition of PC-3 cell proliferation (MTT); assay type: cell-based; conditions: 100 μg/ml, 48 h, 5×10^5 cells/ml
How it was run: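 PC-3 cells (5×10^5 cells/ml) exposed 48 h at 37 °C to 3- and 6-base GT oligonucleotide sequences at 100 μg/ml versus untreated control. Proliferation read by MTT reduction at 570 nm.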

[3] = tested on: EL-4 murine T lymphoma cells; assay: Inhibition of EL-4 cell proliferation (MTT); assay type: cell-based; conditions: 100 μg/ml, 48 h
How it was run: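 EL-4 cells at 2.5×10^5 cells/ml were exposed for 48 h at 37° C, 5% CO2, to 100 μg/ml of 2- to 45-base sequences of A, C, G and T, against untreated controls. Proliferation was read by MTT reduction at 570 nm.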

[4] = tested on: D-17 canine osteosarcoma cells; assay: Inhibition of D-17 cell proliferation (MTT); assay type: cell-based; conditions: 100 μg/ml, 48 h, 5×10^5 cells/ml
Experimental: as §1, §2
(§3) D-17 canine osteosarcoma cells and CF-51 canine mammary gland cancer cells are solid tumor models. D-17 canine osteosarcoma cells (5×10^5 cells/ml) (Table 20) and CF-51 canine mammary gland cancer cells (5×10^5 cells/ml) (Table 21) were incubated with 6, 9, 17, 27 and 33 base GT-sequences and with a 15 base ACG sequence.

[5] = tested on: CF-51 canine mammary gland cancer cells; assay: Inhibition of CF-51 cell proliferation (MTT); assay type: cell-based; conditions: 100 μg/ml, 48 h, 5×10^5 cells/ml
Experimental: as §1, §2, §3

[6] = tested on: Jurkat human leukemia T cells; assay: Cell cycle stage in Jurkat cells (propidium iodide flow cytometry); assay type: cell-based; conditions: 24 h
How it was run: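 Phase distribution (G0/G1, early, mid and late S, G2/M) came from flow cytometry with doublet discrimination on propidium iodide-stained nuclei. Jurkat cells were given 24 h exposure to 2–45-base oligonucleotides, or at 1×10^6 cells/ml to single 6-base GT or AC strands heated 10 min at 65 °C or 1:1 hybridized duplex.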

[7] = tested on: Jurkat human leukemia T cells; assay: NuMA release into supernatant (ELISA); assay type: cell-based; conditions: for % NuMA released (treated vs untreated cells): 50 μM sequence
How it was run: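 Jurkat T cells (1×10^6/ml) exposed to GT-containing oligonucleotide sequences, at 50 μM in some experiments, for 24 h in some experiments. NuMA released into the supernatant quantified by commercial ELISA.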

rhesus monkey PBMCs = assay: Cytokine production by rhesus monkey PBMC (ELISA); assay type: cell-based; conditions: PBMC of 4 healthy rhesus monkeys, 100 μg/ml, 48 h
How it was run: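 Peripheral blood mononuclear cells taken from 4 healthy rhesus monkeys were cultured at 1×10^6 cells with 100 μg/ml of each test sequence for 48 h at 37° C. under 5% CO2. Cytokine levels in 100 μl of supernatant were quantified in pg/ml by commercial ELISA and reported as fold increase over untreated control cells.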

[8] = Melting temperature (Tm) of sequences; assay type: physicochemical
[9] = tested on: MCF-7 human breast cancer cells; assay: MCF-7 human breast tumor xenografts in female nude BALB/c mice; assay type: in vivo; conditions: after 4 weeks of treatment, compared with other groups (group 1 saline)
Experimental: MCF-7 human breast cancer cells are implanted subcutaneously as xenografts, in female nude BALB/c mice. The mice are divided into 6 groups of 10 mice. […] After 4 weeks of treatment, the mice are sacrificed and tumor mass is determined.

[10] = Jurkat 1×10^6 cells/ml, sequences heated 10 minutes at 65° C.

| Sequence | % INHIBITION of HL-60 human promyelocytic leukemia cell proliferation [1] | % INHIBITION of PC-3 human prostate cancer cell proliferation [2] | % INHIBITION of EL-4 murine T lymphoma cell proliferation [3] | % INHIBITION of D-17 canine osteosarcoma cell proliferation [4] | % INHIBITION of CF-51 canine mammary gland cancer cell proliferation [5] | % of cells in phase: G0/G1 ([6]; Jurkat, 100 μg/ml) | % of cells in phase: G2/M ([6]; Jurkat, 100 μg/ml) | % of cells in phase: SE ([6]; Jurkat, 100 μg/ml) | % of cells in phase: SL ([6]; Jurkat, 100 μg/ml) | % of cells in phase: SM ([6]; Jurkat, 100 μg/ml) | Arrest (cell cycle) ([6]; Jurkat, 100 μg/ml) | % NuMA released (treated vs untreated cells) ([7]; Jurkat) | IL-10 fold increase: mean +/− SD (rhesus monkey PBMCs) | IL-12 fold increase: mean +/− SD (rhesus monkey PBMCs) | TNF-alpha fold increase: mean +/− SD (rhesus monkey PBMCs) | other results |
| --- | --- | --- | --- | --- | --- | --- | --- | --- | --- | --- | --- | --- | --- | --- | --- | --- |
| GTGTGT [SEQ ID NO:10] | 13% | 37% | −2% | 15% | 15% | 30.8% | 0.3% | 41.9% | 10.2% | 16.8% | End SE | 90% | 1.3 +/− 0.1 fold increase | 10.7 +/− 4.1 fold increase | 16.1 +/− 4.2 fold increase |  |
| GGGTGG [SEQ ID NO:25] | 35% | 38% | 4% and 1% | 18% | 14% | 28.5% | 0.0% | 46.3% | 10.7% | 14.6% | End SE | 69% | 1.0 +/− 0.1 fold increase | 10.6 +/− 4.7 fold increase | 12.5 +/− 5.2 fold increase | % cells in phase: G0/G1 [6, 10]: 28.0%; % cells in phase: G2/M [6, 10]: 0.9%; % cells in phase: SE [6, 10]: 45.8%; % cells in phase: SL [6, 10]: 11.3%; % cells in phase: SM [6, 10]: 14.0%; Arrest (cell cycle) [6, 10]: induced arrest at the end of the SE phase of the cell cycle; % NUMA RELEASED ([7]; Jurkat 1×10^6/ml): 269%; % NuMA released (untreated vs treated cells) ([7]; Jurkat, 24 h, sequences heated 10 minutes at 65° C.): 69%; melting temperature (Tm) [8]: 2.5 °C; tumor mass [9]: less tumor mass than group 1 mice |
| TTGTTT [SEQ ID NO:26] | 16% | 18% |  |  |  | 32.6% | 32.4% | 11.5% | 10.7% | 12.8% | END G2/M | 23% | 1.0 +/− 0.1 fold increase |  | 2.1 +/− 1.0 fold increase |  |
